Laboratory results taken from article PMC11078746 (Nature, 2024).
Like-named read-outs stand apart in the source and are kept apart here.

Columns and labels:
[1] = system: SNU1; test: 4 day proliferation assay (CellTiter-Glo); conditions: Homo sapiens, SNU1, 96 h, read-out: 4 day assay GI50
[2] = system: SW48 xenografts; test: SW48 xenograft efficacy, HRO761, irinotecan and combination; format: in vivo, mouse
Description: (§1) All animal studies were conducted in accordance with ethics and procedures covered by permit BS-2275 and BS-1975 issued by the Kantonales Veterinäramt Basel-Stadt and in strict adherence to guidelines of the Eidgenössisches Tierschutzgesetz and the Eidgenössische Tierschutzverordnung, Switzerland. All animal studies were approved by the internal ethics committee. All animals had access to food and water ad libitum and were identified with transponders. They were housed in a specific-pathogen-free facility in IVC racks under a 12 h–12 h light–dark cycle. To establish cell-line-derived xenograft models, 6–7-week-old female athymic nude (Crl:NU(NCr)-Foxn1^nu) or SCID-BEIGE (CB17.Cg-PrkdcscidLystbg-J/Crl) mice from Charles River were engrafted subcutaneously with 5 million tumour cells in HBSS (H6648, Sigma-Aldrich). For SNU-407, Lovo, IM95, RL95.2, Ishikawa and IGROV-1, the cells were concentrated in 50% Matrigel (354234, Corning). Patient-derived xenografts were induced and expanded by transplantation as previously described. […] For the efficacy experiment, mice were randomized into groups (n = 5–6) for a mean tumour size of 100–150 mm^3. […] Blood samples were collected on day 7 and 91. […] Tumour responses are reported with the measures of tumour volumes from the treatment start. […] Animals were randomized (n = 3) and tumour samples were collected at 0, 1, 4, 8 and 24 h on the first day and then collected 4 h after the last treatment on day 3, 8, 10, 14 (including a 24 h timepoint), 17 and 21. Tumours were excised, weighed, either frozen in liquid nitrogen and cryogenic dry pulverized with the CryoPrep system (model CP-02, Covaris) or processed to FFPE after fixation. […] On day 12, blood samples were collected for PK analysis. On the last day (3 h after the last treatment), tumours were excised, weighed, frozen in liquid nitrogen and cryogenic dry pulverized for PD analysis.

[3] = system: HEC251; test: 4 day proliferation assay (CellTiter-Glo); conditions: Homo sapiens, HEC-251, 96 h, read-out: 4 day assay GI50
[4] = system: SNUC2A; test: CFA 10-14 day clonogenic assay; format: cell-based; conditions: Homo sapiens
[5] = system: DLD-1 (HCT15); test: CFA 10-14 day clonogenic assay; format: cell-based; conditions: Homo sapiens
[6] = system: LS180; test: CFA 10-14 day clonogenic assay; format: cell-based; conditions: Homo sapiens
[7] = system: HEC151; test: 4 day proliferation assay (CellTiter-Glo); conditions: Homo sapiens, 96 h, read-out: 4 day assay GI50
[8] = system: HCT116; test: CFA 10-14 day clonogenic assay; format: cell-based; conditions: Homo sapiens, HCT-116
[9] = system: TOV21G; test: CFA 10-14 day clonogenic assay; format: cell-based; conditions: Homo sapiens
[10] = system: MSI CDX and PDX models; test: In vivo screen in a panel of CDX and PDX models; set-up: species or system mouse; conditions: 60 or 120 mg per kg once daily
Description: as §1

[11] = system: NUGC3; test: CFA 10-14 day clonogenic assay; format: cell-based; conditions: Homo sapiens, NUGC-3
[12] = system: LS411N; test: 4 day proliferation assay (CellTiter-Glo)
[13] = system: MSI cancer cells; test: Clonogenic assay, 10-to-14-day; format: cell-based; conditions: Homo sapiens, 10-to-14-day clonogenic assay
[14] = system: IM95; test: CFA 10-14 day clonogenic assay; format: cell-based; conditions: Homo sapiens
[15] = system: OVK18; test: CFA 10-14 day clonogenic assay; format: cell-based; conditions: Homo sapiens
[16] = system: LOVO; test: 4 day proliferation assay (CellTiter-Glo); conditions: Homo sapiens, 96 h, read-out: 4 day assay GI50

CCc1c(N2CCN(C(=O)c3ncnc(C)c3O)CC2)c(=O)n2nc(C3=CCOCC3)nc2n1CC(=O)Nc1ccc(C(F)(F)F)cc1Cl [HRO761]
GI50 [1]: ≥ 10000 nM | Mean TVol (mm3) ([2]; HRO761 20mg/kg, day 0 post 1st dose): 247.56 mm3 | Mean TVol (mm3) ([2]; HRO761 20mg/kg, day 7 post 1st dose): 408.23 mm3 | Mean TVol (mm3) ([2]; HRO761 20mg/kg, day 14 post 1st dose): 343.04 mm3 | Mean TVol (mm3) ([2]; HRO761 20mg/kg, day 21 post 1st dose): 353.40 mm3 | Mean TVol (mm3) ([2]; HRO761 20mg/kg, day 28 post 1st dose): 598.05 mm3 | Mean TVol (mm3) ([2]; HRO761 20mg/kg, day 35 post 1st dose): 1006.91 mm3 | Mean TVol (mm3) ([2]; HRO761 20mg/kg, day 4 post 1st dose): 324.64 mm3 | Mean TVol (mm3) ([2]; HRO761 20mg/kg, day 11 post 1st dose): 389.58 mm3 | Mean TVol (mm3) ([2]; HRO761 20mg/kg, day 18 post 1st dose): 304.90 mm3 | Mean TVol (mm3) ([2]; HRO761 20mg/kg, day 25 post 1st dose): 411.31 mm3 | Mean TVol (mm3) ([2]; HRO761 20mg/kg, day 32 post 1st dose): 799.70 mm3 | Mean TVol (mm3) ([2]; HRO761 40mg/kg, day 0 post 1st dose, n=6): 170.74 mm3 | Mean TVol (mm3) ([2]; HRO761 40mg/kg, day 3 post 1st dose, n=6): 266.92 mm3 | Mean TVol (mm3) ([2]; HRO761 40mg/kg, day 7 post 1st dose, n=6): 238.47 mm3 | Mean TVol (mm3) ([2]; HRO761 40mg/kg, day 10 post 1st dose, n=6): 242.34 mm3 | Mean TVol (mm3) ([2]; HRO761 40mg/kg, day 14 post 1st dose, n=6): 187.67 mm3 | Mean TVol (mm3) ([2]; HRO761 40mg/kg, day 17 post 1st dose, n=6): 156.98 mm3 | Mean TVol (mm3) ([2]; HRO761 40mg/kg, day 21 post 1st dose, n=6): 121.57 mm3 | Mean TVol (mm3) ([2]; HRO761 40mg/kg, day 24 post 1st dose, n=6): 71.41 mm3 | Mean TVol (mm3) ([2]; HRO761 40mg/kg, day 28 post 1st dose, n=6): 43.54 mm3 | Mean TVol (mm3) ([2]; HRO761 40mg/kg, day 31 post 1st dose, n=6): 43.20 mm3 | Mean TVol (mm3) ([2]; HRO761 40mg/kg, day 35 post 1st dose, n=6): 52.04 mm3 | Mean TVol (mm3) ([2]; HRO761 40mg/kg, day 38 post 1st dose, n=6): 63.12 mm3 | Mean TVol (mm3) ([2]; HRO761 40mg/kg, day 43 post 1st dose, n=6): 108.93 mm3 | Mean TVol (mm3) ([2]; HRO761 40mg/kg, day 46 post 1st dose, n=6): 106.14 mm3 | Mean TVol (mm3) ([2]; HRO761 40mg/kg, day 49 post 1st dose, n=6): 165.61 mm3 | Mean TVol (mm3) ([2]; HRO761 40mg/kg, day 52 post 1st dose, n=6): 180.62 mm3 | Mean TVol (mm3) ([2]; HRO761 40mg/kg, day 56 post 1st dose, n=6): 250.37 mm3 | Mean TVol (mm3) ([2]; HRO761 40mg/kg, day 59 post 1st dose, n=6): 307.84 mm3 | Mean TVol (mm3) ([2]; HRO761 40mg/kg, day 63 post 1st dose, n=6): 385.98 mm3 | Mean TVol (mm3) ([2]; HRO761 40mg/kg, day 67 post 1st dose, n=6): 504.27 mm3 | Mean TVol (mm3) ([2]; HRO761 40mg/kg, day 70 post 1st dose, n=6): 521.42 mm3 | Mean TVol (mm3) ([2]; HRO761 40mg/kg, day 73 post 1st dose, n=6): 687.64 mm3 | GI50 [3]: ≥ 10000 nM | GI50 [4]: 25 nM | GI50 [5]: ≥ 10000 nM | GI50 [6]: 131 nM | GI50 [7]: ≥ 10000 nM | GI50 [8]: 59 nM | GI50 [9]: 1310 nM | complete responses [10]: 9% | disease control rate [10]: approximately 70% | partial responses [10]: 30% | stable diseases [10]: 35% | GI50 [11]: ≥ 10000 nM | GI50 ([12]; Homo sapiens, LS-411N, 96 h, read-out: 4 day assay GI50, LS411N): 147 nM | GI50 ([12]; read-out: 4 day assay GI50, LS411N): 257 nM | GI50 [13]: 50 to 1000 nM | GI50 [14]: 255 nM | GI50 [15]: 150 nM | GI50 [16]: 1240 nM
